Results reported in patent publication US12318365B2, “Inhibition of dipeptide repeat proteins” (ALS Therapy Development Institute, priority 2019, dated 2025).
“Also recorded” adds a separate entry of the source. No end group written: not given here.

Test system: NSC-34 motor-neuron-like cells
Experiment: WST-1 assay (dysmetabolism) in NSC-34 cells
Assay type: cell-based, Mouse
Conditions: for reduction of metabolic activity in NSC-34 compared to CHO: DRP 30 and 3 μM, 48 h
Source text: WST-1 Assay: The WST-1 assay is a colorimetric assay that measures cell metabolism. Cells with a healthy metabolism contain mitochondrial dehydrogenase enzymes that remove hydrogen atoms from certain molecules, resulting in a release of energy that the cell can use to perform critical reactions. In the WST-1 assay, a water soluble tetrazolium salt substrate (known as WST-1) is applied, which readily enters cells and their mitochondria upon application. If cells are viable, their mitochondrial dehydrogenase enzymes will catalyze the reaction to convert this WST-1 substrate to a colored product called Formazan. The production of this colored Formazan product by viable cells can be quantified using a spectrophotometer (plate reader). Higher absorbance readings correspond to greater metabolic activity/cell viability.
NSC-34 Cell Culture: NSC-34 cells (Cedarlane Laboratories, Burlington, ON, CA) were cultured in a complete medium consisting of High Glucose Dulbecco's Modified Eagle Medium (Millipore-Sigma, Burlington, MA, USA) supplemented with 10% US-origin fetal bovine serum (Thermo-Fisher Scientific, Cambridge, MA, USA), 1% 200 mM L-Glutamine solution (Thermo-Fisher Scientific, Cambridge, MA, USA), and 1% 10,000 U/mL Penicillin-Streptomycin solution (Thermo-Fisher Scientific, Cambridge, MA, USA). Prior to preparation of NSC-34 complete medium, L-Glutamine and Penicillin-Streptomycin solutions were aliquoted and stored at −20° C., and DMEM/High Glucose was stored at 4°. […] Prepared complete medium, DPBS, and Trypsin were always heated in a 37° C. water bath before use, and stored at 4° C. between uses. Cell counts for plating were performed using a Hausser Scientific cell counting chamber (Thermo-Fisher Scientific, Cambridge, MA, USA).
Proteins were reconstituted in sterile DMSO (Millipore-Sigma, Burlington, MA, USA) to stock concentrations of 10 mM, and stored at 4° C.
After reconstitution using the solvents specified in Table _, stocks were aliquoted to 15-20 μL and immediately stored at −20° C.
One row on the top and bottom of the plate, and two columns on either side of the plate, were left without cells and contained culture medium only to minimize experimental well volume evaporation. After plating, cells were incubated for 24 h at 37° C., 5% CO2 prior to DRP and/or PRMT inhibitor addition. At time of DRP/PRMT inhibitor addition, desired doses of DRP for challenge and inhibitor for treatment were achieved by diluting aliquots of each stock in warm culture medium. During experiments where both PRMT inhibitors and DRPs were used, PRMT inhibitors were always applied to wells first, and followed by DRP application. […] Inhibitor toxicity controls were included as wells treated with the desired doses of drug for the experiment, but no DRP. DRP toxicity controls were included as wells only treated with the doses of DRP used for challenge. […] Additional controls needed for each endpoint are specified in the “WST-1 Assay” and “LDH Assay” sections of these methods.
WST-1 Assay: Cells were plated and prepared using the steps described in the “Plating NSC-34 and Dosing with DRPs and PRMT Inhibitors” section of these methods. Other controls for this experiment included wells containing only cells in culture medium, and culture medium only. At time of testing, culture medium was removed from wells and replaced with a warmed, sterile-filtered solution consisting of DPBS with calcium and magnesium, and 4.5 g/L D-glucose (Millipore-Sigma, Burlington, MA, USA). To wells containing 200 μL DPBS-glucose solution, 20 μL/well WST-1 reagent (Millipore-Sigma, Burlington, MA) was applied and plates were then incubated at 37° C., 5% CO2 for 1 h before plates were read at 450 nm on a SpectraMax M3 Microplate Reader (Molecular Devices, San Jose, CA, USA). Experiments included three replicates per condition.

Compound | reduction of metabolic activity in NSC-34 compared to CHO | abrogation of ADMe-GR15-induced dysmetabolism (3 μM ADMe-GR15 challenge, 24 h, MS023 0.1-10 μM, three repeats) | lowest dose with significant partial abrogation of dysmetabolism in GR-treated cells (3 μM GR15, 24 h, MS023 0.01-3 μM) [µM] | dose dependence of abrogation of GR15-induced dysmetabolism (3 μM GR15 challenge, 24 h, dose range of the example) | abrogation of GR-induced dysmetabolism (3 μM GR15 challenge, 24 h, inhibitor dose 3 μM) | abrogation of GR15-induced dysmetabolism (3 μM GR15 challenge, 24 h, inhibitor doses 1 and 3 μM) | relative potency against GR- vs PR-induced dysmetabolism (3 μM GR15 or PR15, 24 h, MS023 0.01-3 μM) | lowest dose with significant partial abrogation of dysmetabolism in PR-treated cells (3 μM PR15, 24 h, MS023 0.01-3 μM) [µM] | dose dependence of abrogation of PR15-induced dysmetabolism (3 μM PR15 challenge, 24 h, dose range of the example) | abrogation of PR15-induced dysmetabolism (3 μM PR15 challenge, 24 h, inhibitor doses 1 and 3 μM) | dysmetabolism independently of DRP challenge (no DRP, over all doses tested) | dysmetabolism induced by DRP challenge (DRP 10 nM-3 μM, 24 h)
PRPRPRPRPRPRPRPRPRPRPRPRPRPRPR [PR15] | significantly greater reduction of metabolic activity in NSC-34 |  |  |  |  |  |  |  |  |  |  | 
CC(C)Oc1ccc(-c2c[nH]cc2CN(C)CCN)cc1 [MS023] |  | did not abrogate | 0.1 | in a dose-dependent manner; also recorded: consistently dose-dependently abrogated | abrogated GR-induced dysmetabolism | completely abrogated | more potently abrogated GR-induced dysmetabolism | 0.3 | in a dose-dependent manner; also recorded: dose-dependently abrogated | completely abrogated | No doses of MS023 tested induced dysmetabolism; also recorded: No doses of MS023 tested produced dysmetabolism | 
GRGRGRGRGRGRGRGRGRGRGRGRGRGRGR [GR15] | significantly greater reduction of metabolic activity in NSC-34 |  |  |  |  |  |  |  |  |  |  | induced dose-dependent dysmetabolism
